Five cell lines from the supplement of paper PMC10307832 can be followed below.

Common to all, as to assay: relative viability (nuclei count vs DMSO), 5 days (fraction); higher = more cells survive
Compound in the assay “17-AAG + Palbociclib”: C=CCNC1=C2C[C@@H](C)C[C@H](OC)[C@H](O)[C@@H](C)/C=C(\C)[C@H](OC(N)=O)[C@@H](OC)/C=C\C=C(/C)C(=O)NC(=CC1=O)C2=O [17-AAG] + CC(=O)c1c(C)c2cnc(Nc3ccc(N4CCNCC4)cn3)nc2n(C2CCCC2)c1=O [Palbociclib] (partner 0.5 µM)
In a few lines:
(§1)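 The day after seeding in 1536-well plates, lung cancer cell lines were treated by pin tool with a single drug, or with a fixed anchor-drug dose together with five library-drug doses (not always all listed) in √10 steps. After 5 days, a combined fix-and-stain solution (final 0.05% Triton X-100, 1% formaldehyde, 1 ug/ml Hoechst) was added. Nuclei counted on 4× images gave relative viability as treated counts over vehicle counts, reported as the median of duplicate plates.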

Compound in the assay “17-AAG + Crizotinib”: C=CCNC1=C2C[C@@H](C)C[C@H](OC)[C@H](O)[C@@H](C)/C=C(\C)[C@H](OC(N)=O)[C@@H](OC)/C=C\C=C(/C)C(=O)NC(=CC1=O)C2=O [17-AAG] + C[C@@H](Oc1cc(-c2cnn(C3CCNCC3)c2)cnc1N)c1c(Cl)ccc(F)c1Cl [Crizotinib] (partner 1 µM)
The method, boiled down:
as §1

Compound in the assay “17-AAG + Vorinostat”: C=CCNC1=C2C[C@@H](C)C[C@H](OC)[C@H](O)[C@@H](C)/C=C(\C)[C@H](OC(N)=O)[C@@H](OC)/C=C\C=C(/C)C(=O)NC(=CC1=O)C2=O [17-AAG] + O=C(CCCCCCC(=O)Nc1ccccc1)NO [Vorinostat] (partner 1 µM)
The method, boiled down: as §1

Compound in the assay “17-AAG + AZD7762”: C=CCNC1=C2C[C@@H](C)C[C@H](OC)[C@H](O)[C@@H](C)/C=C(\C)[C@H](OC(N)=O)[C@@H](OC)/C=C\C=C(/C)C(=O)NC(=CC1=O)C2=O [17-AAG] + NC(=O)Nc1cc(-c2cccc(F)c2)sc1C(=O)N[C@H]1CCCNC1 [AZD7762] (partner 0.2 µM)
The method, boiled down:
as §1

SK-LU-1: the relative viability was found to be 0.441 with 17-AAG + Palbociclib (first compound 0.00128 µM); 0.469 with 17-AAG + Palbociclib (first compound 0.004048 µM); 0.295 in the assay with 17-AAG + Palbociclib (first compound 0.0128 µM); 0.272 with 17-AAG + Palbociclib (first compound 0.04048 µM); 0.204 in the assay with 17-AAG + Palbociclib (first compound 0.128 µM); 0.888 with 17-AAG + Crizotinib (first compound 0.00128 µM). Further, the relative viability was 0.435 with 17-AAG + Crizotinib (first compound 0.004048 µM); 0.242 in the assay with 17-AAG + Crizotinib (first compound 0.0128 µM); 0.232 with 17-AAG + Crizotinib (first compound 0.04048 µM); 0.176 in the assay with 17-AAG + Crizotinib (first compound 0.128 µM); 0.86 in the assay with 17-AAG + Vorinostat (first compound 0.00128 µM); 0.556 in the assay with 17-AAG + Vorinostat (first compound 0.004048 µM). The relative viability with 17-AAG + Vorinostat (first compound 0.0128 µM) was 0.293; with 17-AAG + Vorinostat (first compound 0.04048 µM), 0.253; with 17-AAG + Vorinostat (first compound 0.128 µM), 0.199.

As to SK-MES-1, the relative viability turned out to be 0.347 with 17-AAG + Palbociclib (first compound 0.00128 µM); 0.394 with 17-AAG + Palbociclib (first compound 0.004048 µM); 0.281 with 17-AAG + Palbociclib (first compound 0.0128 µM); 0.211 in the assay with 17-AAG + Palbociclib (first compound 0.04048 µM); 0.164 in the assay with 17-AAG + Palbociclib (first compound 0.128 µM); 1.02 with 17-AAG + Crizotinib (first compound 0.00128 µM). Besides, the relative viability in the assay with 17-AAG + Crizotinib (first compound 0.004048 µM) was 1.01; with 17-AAG + Crizotinib (first compound 0.0128 µM), 0.822; with 17-AAG + Crizotinib (first compound 0.04048 µM), 0.224; with 17-AAG + Crizotinib (first compound 0.128 µM), 0.144; with 17-AAG + Vorinostat (first compound 0.00128 µM), 1.1; in the assay with 17-AAG + Vorinostat (first compound 0.004048 µM), 1.03. Besides, the relative viability came to 0.514 with 17-AAG + Vorinostat (first compound 0.0128 µM), 0.182 in the assay with 17-AAG + Vorinostat (first compound 0.04048 µM) and 0.179 in the assay with 17-AAG + Vorinostat (first compound 0.128 µM).

Consider SW 900, for which the relative viability in the assay with 17-AAG + Palbociclib (first compound 0.00128 µM) worked out at 0.575; with 17-AAG + Palbociclib (first compound 0.004048 µM), 0.511; with 17-AAG + Palbociclib (first compound 0.0128 µM), 0.277; with 17-AAG + Palbociclib (first compound 0.04048 µM), 0.192; in the assay with 17-AAG + Palbociclib (first compound 0.128 µM), 0.125; in the assay with 17-AAG + AZD7762 (first compound 0.00128 µM), 0.661. The relative viability is 0.68 with 17-AAG + AZD7762 (first compound 0.004048 µM); 0.255 with 17-AAG + AZD7762 (first compound 0.0128 µM); 0.11 with 17-AAG + AZD7762 (first compound 0.04048 µM); 0.133 in the assay with 17-AAG + AZD7762 (first compound 0.128 µM); 0.51 in the assay with 17-AAG + Vorinostat (first compound 0.00128 µM); 0.547 with 17-AAG + Vorinostat (first compound 0.004048 µM). Also, the relative viability with 17-AAG + Vorinostat (first compound 0.0128 µM) is 0.23; with 17-AAG + Vorinostat (first compound 0.04048 µM), 0.138; with 17-AAG + Vorinostat (first compound 0.128 µM), 0.131.

As for SW 1573, the relative viability in the assay with 17-AAG + Palbociclib (first compound 0.00128 µM) was determined as 0.459; with 17-AAG + Palbociclib (first compound 0.004048 µM), 0.207; with 17-AAG + Palbociclib (first compound 0.0128 µM), 0.169; with 17-AAG + Palbociclib (first compound 0.04048 µM) it was 0.103; with 17-AAG + Palbociclib (first compound 0.128 µM) it was 0.0788; with 17-AAG + Crizotinib (first compound 0.00128 µM), 0.764. In addition, the relative viability in the assay with 17-AAG + Crizotinib (first compound 0.004048 µM) was found to be 0.872; in the assay with 17-AAG + Crizotinib (first compound 0.0128 µM), 0.687; with 17-AAG + Crizotinib (first compound 0.04048 µM), 0.167; with 17-AAG + Crizotinib (first compound 0.128 µM) it was 0.106; with 17-AAG + Vorinostat (first compound 0.00128 µM), 0.782; in the assay with 17-AAG + Vorinostat (first compound 0.004048 µM), 1.01. In addition, the relative viability was found to be 0.241 in the assay with 17-AAG + Vorinostat (first compound 0.0128 µM), 0.128 in the assay with 17-AAG + Vorinostat (first compound 0.04048 µM) and 0.0675 with 17-AAG + Vorinostat (first compound 0.128 µM).

For the cell line UMC-11, the relative viability turned out to be 0.353 with 17-AAG + Palbociclib (first compound 0.00128 µM); 0.371 with 17-AAG + Palbociclib (first compound 0.004048 µM); 0.3 with 17-AAG + Palbociclib (first compound 0.0128 µM); 0.249 with 17-AAG + Palbociclib (first compound 0.04048 µM); 0.292 with 17-AAG + Palbociclib (first compound 0.128 µM); 0.717 with 17-AAG + Crizotinib (first compound 0.00128 µM). Besides, the relative viability with 17-AAG + Crizotinib (first compound 0.004048 µM) was determined as 0.58; in the assay with 17-AAG + Crizotinib (first compound 0.0128 µM) it was 0.399; in the assay with 17-AAG + Crizotinib (first compound 0.04048 µM), 0.148; with 17-AAG + Crizotinib (first compound 0.128 µM), 0.0804; in the assay with 17-AAG + Vorinostat (first compound 0.00128 µM), 0.467; in the assay with 17-AAG + Vorinostat (first compound 0.004048 µM), 0.363. Further, the relative viability with 17-AAG + Vorinostat (first compound 0.0128 µM) turned out to be 0.343; with 17-AAG + Vorinostat (first compound 0.04048 µM) it was 0.229; with 17-AAG + Vorinostat (first compound 0.128 µM), 0.222.
